Assay results: US20090124572A1, “Iron-containing nutritional supplement” (priority 2007, published 2009)

Tests used:
[1] = test system: Caco-2 cells; assay: In-solution treatment of Caco-2 cells, ferritin formation as index of iron uptake/bioavailability (Experiments 1 and 2); conditions: Experiment 1, 6-well plates, iron 20 μmol/L, AA 400 μmol/L, 20 hours
[2] = dissolved in water; cited from earlier work

| Compound | ferritin formation in Caco-2 cells in the presence of ascorbic acid [1] | pH of aqueous solution [2] |
| --- | --- | --- |
| [Cl][Fe]([Cl])[Cl] [FeCl3, ferric chloride] | significantly lower |  |
| ferrous sulfate |  | about 2 |
